Results from paper PMC12372887, “Mechanism and cellular actions of the potent AMPK inhibitor BAY-3827” (Science Advances, 2025).
Where “and” joins values, the source holds several entries; their conditions need not be identical. Identical values can stand only once. Like-named read-outs stand apart in the source and are kept apart here.

Assays:
AMPKα2β1γ1 [1] = molecular target: T1, AMPKα2β1γ1 (Homo sapiens, UniProt P54646); test: Cell-free AMPK kinase assay (SAMS peptide); assay type: biochemical; conditions: 200 μM ATP; 0 to 1 μM BAY-974
T1 construct: made in house; host or cells: HEK293 (transient transfection, anti-FLAG immunoprecipitate)
Experimental: (§1) Heterotrimeric human AMPK FLAG- α1β1γ1, FLAG- α2β1γ1, and FLAG- α2β2γ1, as well as human FLAG-CaMKK2 and FLAG-ULK1, were produced in mammalian HEK293 cells as described ([66], [67]). For AMPK expression, the cells were triply transfected at 60% confluency using FuGene HD (Roche Applied Science) and 1 μg of pcDNA3 plasmid expression constructs for AMPK Flag-α1, β1-Myc, β2-Myc, and HA-γ1. For CaMKK2 expression, the cells were transfected with 1 μg of pcDNA3 Flag-CaMKK2 plasmid. For ULK1 expression, the cells were transfected with […] of pcDNA3 FLAG-ULK1 plasmid. After 48 hours, the transfected cells were harvested by rinsing with ice-cold PBS, followed by rapid lysis using 500 μl of lysis buffer. AMPK, CaMKK2, and ULK1 kinase activities were determined by phosphorylation of synthetic peptide substrates: SAMS (HMRSAMSGLHLVKRR), CaMKKtide ([…]), and S108tide. (KLPLTRSHNNFVARRR), respectively. Briefly, recombinant AMPK, CaMKK2, or ULK1 were immunoprecipitated from 10 μg of transfected cultured cell lysate using 10 μl of anti-FLAG M2 agarose beads [50% (v/v)] (Merck MilliporeSigma), washed, and then added to a 25-μl reaction containing assay buffer [50 mM Hepes-NaOH (pH 7.4), 1 mM DTT, and 0.02% (v/v) Brij-35], 200 μM synthetic peptide substrate (SAMS, CaMKKtide, or S108tide), 200 or 20 μM [γ-^32P]-ATP (PerkinElmer), 5 mM MgCl2, in the presence of 0 to 1 μM BAY-3827 or BAY-974. Reactions were performed at 30°C and terminated after 10 min by spotting 15 μl onto phosphocellulose paper. Radioactivity was quantified by liquid scintillation counting. Data visualization and nonlinear regression fitting were performed in GraphPad Prism v10.
(§2) Data points are plotted as means ± SEM. Data were inputted, and all statistical tests were performed using GraphPad Prism, version 10.1.0. One- or two-way analysis of variance (ANOVA) statistical tests were conducted using Tukey’s correction for multiple comparisons; specific test will be stated in the figure legend. Significance was accepted as P < 0.05. N number and statistical details for each experiment are reported in each figure legend. […] To estimate IC50 values, nonlinear regression fitting was conducted using the model (Inhibitor) versus response—variable slope in GraphPad Prism (version 10.1.0) and estimating values reported in nanomolar. To estimate binding affinities (Kd) from performed spectral shift binding assays, data were fitted using a one-site total model [Y = BmaxX/(Kd + X) + NSX + Background] where X is the ligand concentration, Bmax represents the maximum binding, and NS is the slope of the nonlinear regression of Y/X. Values are reported in means ± SEM in micromolar.

AMPKα2β2γ1 [2] = molecular target: T2, AMPKα2β2γ1 (Homo sapiens, UniProt P54646); test: Cell-free AMPK kinase assay (SAMS peptide); assay type: biochemical; conditions: 200 μM ATP; 0 to 1 μM compound
T2 construct: made in house; host or cells: HEK293 (transient transfection, anti-FLAG immunoprecipitate)
Experimental: as §1, §2

AMPK = test system: AMPK; design: method as in PMID 33492659; conditions: 2 μM AMP, cited from earlier work
AMPKα1β1γ1 = molecular target: T3, AMPKα1β1γ1 (Homo sapiens, UniProt P54619+Q13131+Q9Y478); test: Cell-free AMPK kinase assay (SAMS peptide); assay type: biochemical
T3 construct: made in house; host or cells: HEK293 (transient transfection, anti-FLAG immunoprecipitate)
Experimental: as §1, §2

AMPKα2β2γ1 [3] = molecular target: T4, AMPKα2β2γ1 (Homo sapiens, UniProt O43741+P54619+P54646); test: Cell-free AMPK kinase assay (SAMS peptide); assay type: biochemical
T4 construct: made in house; host or cells: HEK293 (transient transfection, anti-FLAG immunoprecipitate)
Experimental: as §1, §2

AMPKα2β1γ1 [4] = molecular target: T5, AMPKα2β1γ1 (Homo sapiens, UniProt P54619+P54646+Q9Y478); test: Cell-free AMPK kinase assay (SAMS peptide); assay type: biochemical
T5 construct: made in house; host or cells: HEK293 (transient transfection, anti-FLAG immunoprecipitate)
Experimental: as §1, §2

T3 sequence (Q13131 whole entry): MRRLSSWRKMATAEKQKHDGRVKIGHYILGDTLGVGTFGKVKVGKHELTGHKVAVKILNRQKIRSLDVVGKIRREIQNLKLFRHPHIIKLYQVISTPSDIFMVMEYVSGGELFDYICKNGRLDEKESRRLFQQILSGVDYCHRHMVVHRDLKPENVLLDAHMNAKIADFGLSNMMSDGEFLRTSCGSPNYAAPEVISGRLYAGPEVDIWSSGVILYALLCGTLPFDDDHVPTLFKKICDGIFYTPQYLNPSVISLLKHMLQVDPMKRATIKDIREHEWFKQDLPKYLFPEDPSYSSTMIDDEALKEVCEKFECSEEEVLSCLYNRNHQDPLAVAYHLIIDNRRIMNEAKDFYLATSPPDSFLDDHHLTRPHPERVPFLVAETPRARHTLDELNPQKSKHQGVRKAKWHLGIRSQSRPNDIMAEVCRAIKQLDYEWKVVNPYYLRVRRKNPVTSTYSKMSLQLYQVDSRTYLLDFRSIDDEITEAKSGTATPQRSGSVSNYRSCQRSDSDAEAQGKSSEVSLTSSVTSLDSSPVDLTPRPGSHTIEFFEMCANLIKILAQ
T3 sequence (Q9Y478 whole entry partner): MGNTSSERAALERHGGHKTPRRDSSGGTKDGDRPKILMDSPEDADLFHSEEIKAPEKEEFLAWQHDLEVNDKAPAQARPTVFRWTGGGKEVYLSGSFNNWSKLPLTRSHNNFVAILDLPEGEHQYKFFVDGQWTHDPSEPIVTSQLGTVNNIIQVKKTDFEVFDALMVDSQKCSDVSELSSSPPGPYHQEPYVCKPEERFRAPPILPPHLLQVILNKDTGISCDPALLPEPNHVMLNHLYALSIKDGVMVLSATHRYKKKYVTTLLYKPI
T3 sequence (P54619 whole entry partner): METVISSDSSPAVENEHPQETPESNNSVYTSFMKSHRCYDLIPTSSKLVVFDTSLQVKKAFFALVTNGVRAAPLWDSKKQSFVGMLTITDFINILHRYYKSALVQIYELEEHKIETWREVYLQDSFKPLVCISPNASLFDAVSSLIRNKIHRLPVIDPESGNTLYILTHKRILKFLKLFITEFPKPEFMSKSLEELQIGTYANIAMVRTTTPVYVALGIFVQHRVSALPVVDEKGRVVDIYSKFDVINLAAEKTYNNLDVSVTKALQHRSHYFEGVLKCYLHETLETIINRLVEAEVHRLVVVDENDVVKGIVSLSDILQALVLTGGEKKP
T5 sequence (P54646 whole entry): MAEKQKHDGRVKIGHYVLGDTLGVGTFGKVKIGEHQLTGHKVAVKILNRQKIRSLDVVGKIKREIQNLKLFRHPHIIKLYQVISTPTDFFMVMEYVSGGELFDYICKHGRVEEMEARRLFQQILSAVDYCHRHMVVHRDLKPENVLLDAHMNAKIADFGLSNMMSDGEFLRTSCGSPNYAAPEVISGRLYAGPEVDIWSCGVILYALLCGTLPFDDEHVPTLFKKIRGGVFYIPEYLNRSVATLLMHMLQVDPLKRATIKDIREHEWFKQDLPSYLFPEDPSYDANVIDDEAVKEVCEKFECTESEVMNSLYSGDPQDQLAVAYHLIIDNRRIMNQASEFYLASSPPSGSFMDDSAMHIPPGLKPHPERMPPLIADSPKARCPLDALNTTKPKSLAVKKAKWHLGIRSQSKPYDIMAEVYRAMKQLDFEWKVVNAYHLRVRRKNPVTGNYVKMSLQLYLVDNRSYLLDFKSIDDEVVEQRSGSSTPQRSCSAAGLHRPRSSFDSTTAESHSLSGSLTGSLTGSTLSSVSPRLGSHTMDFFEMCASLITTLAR
T5 sequence (Q9Y478 whole entry partner): as the sequence (Q9Y478 whole entry partner) above
T5 sequence (P54619 whole entry partner): as the sequence (P54619 whole entry partner) above
T4 sequence (P54646 whole entry): as the sequence (P54646 whole entry) above
T4 sequence (O43741 whole entry partner): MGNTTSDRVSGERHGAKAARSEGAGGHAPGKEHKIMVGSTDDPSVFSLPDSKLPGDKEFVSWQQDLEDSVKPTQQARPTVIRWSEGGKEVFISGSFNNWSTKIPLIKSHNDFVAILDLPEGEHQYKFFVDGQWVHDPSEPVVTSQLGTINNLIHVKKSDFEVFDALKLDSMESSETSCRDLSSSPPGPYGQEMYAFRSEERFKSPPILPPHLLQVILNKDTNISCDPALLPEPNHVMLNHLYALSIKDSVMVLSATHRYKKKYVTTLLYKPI
T4 sequence (P54619 whole entry partner): as the sequence (P54619 whole entry partner) above
T2 sequence (P54646 whole entry): as the sequence (P54646 whole entry) above
T2 sequence (O43741 whole entry partner): as the sequence (O43741 whole entry partner) above
T2 sequence (P54619 whole entry partner): as the sequence (P54619 whole entry partner) above
T1 sequence (P54646 whole entry): as the sequence (P54646 whole entry) above
T1 sequence (Q9Y478 whole entry partner): as the sequence (Q9Y478 whole entry partner) above
T1 sequence (P54619 whole entry partner): as the sequence (P54619 whole entry partner) above

CC1=C(C#N)C(c2ccc3c(c2)c(NC(=O)c2ccccc2C)nn3C)C(C#N)=C(C)N1 [BAY-974, N-[5-(3,5-dicyano-2,6-dimethyl-1,4-dihydropyridin-4-yl)-1-methylindazol-3-yl]-2-methylbenzamide]
inhibitory effect on AMPK complex (AMPKα2β1γ1 [1]): no effect
inhibitory effect on AMPK complex (AMPKα2β2γ1 [2]): no effect

CCc1ccccc1C(=O)Nc1n[nH]c2c(C)c(F)c(C3C(C#N)=C(C)N(C)C(C)=C3C#N)cc12 [BAY-3827, N-[5-(3,5-dicyano-1,2,6-trimethyl-4H-pyridin-4-yl)-6-fluoro-7-methyl-1H-indazol-3-yl]-2-ethylbenzamide]
IC50 (AMPK; high (2 mM) ATP): 15 nM
IC50 (AMPK; low (10 μM) ATP): 1.4 nM
IC50 (AMPKα1β1γ1; 20 μM ATP): 1.8 nM
IC50 (AMPKα1β1γ1; 200 μM ATP): 31.2 nM
IC50 (AMPKα2β2γ1 [3]; 20 μM ATP): 2.8 nM and 2.83 nM
IC50 (AMPKα2β2γ1 [3]; 200 μM ATP): 36.5 nM
IC50 (AMPKα2β1γ1 [4]; 20 μM ATP): 4.1 nM and 4.08 nM
IC50 (AMPKα2β1γ1 [4]; 200 μM ATP): 57 nM and 57.1 nM
